Experimental findings from the METLIN SMRT retention time set (Domingo-Almenara et al. 2019) are described below.

SMILES strings stand for the structures.

The data set can be described thus: gradient 5% acetonitrile 3 min, to 50% in 2 min, to 85% in 15 min, held 3 min, 100 µL/min. The conditions noted are these: column: Zorbax Extend-C18 2.1 x 50 mm; eluents: water / acetonitrile, 0.1% formic acid. The method, boiled down: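 The mobile phases were water and acetonitrile, each with 0.1% formic acid, pumped at 100 μL/min through a Zorbax Extend-C18 column (2.1 × 50 mm, 1.8 μm). Pure standards were injected as mixtures of ~100 molecules and detected by a quadrupole time-of-flight mass spectrometer in positive and negative ionization mode. Retention time came from computationally picked adduct peaks, each inspected by hand.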
For `CCCN(CC1CCOC1)S(=O)(=O)c1ccc(C)c(Cl)c1` (centres undefined), the RP-LC retention time is 1050 s. To `CCCN(CC1CCOC1)C(=O)Nc1cccc(F)c1` (centres undefined) belongs 684 s; to `CCC(=O)Nc1ccc(-n2cnc(C(=O)NCC3CCCO3)c2)nc1` (centres undefined), 614 s. As for `COc1ccc(-c2ccnc3ncnn23)c(F)c1`, the RP-LC retention time was 681 s. The compound `COc1cc(Cl)ccc1C(=O)N(CC1CCOC1)C1CC1` (centres undefined) returned an RP-LC retention time of 803 s. With `O=C(Nc1ccc(F)cc1Cl)C1CCc2sc(C(=O)N3CCOCC3)cc2C1` (centres undefined), the RP-LC retention time came out at 748 s. Then `O=C(Cc1ccc(Cl)cc1)N1CCN(S(=O)(=O)c2cc3c4c(c2)CCC(=O)N4CCC3)CC1`, with 842 s.

The compound `C=CC(=O)Nc1cccc(Oc2nc(Nc3ccc(N4CCN(C)CC4)cc3OC)ncc2Cl)c1` had an RP-LC retention time of 718 s.

Take `Cc1ccc(C)c(CS(=O)(=O)N2CCC(CN3CCCC(C)C3)CC2)c1` (centres undefined): the RP-LC retention time was 723 s. `Cc1noc(-c2nn(C)c3c2CN(C(=O)c2cccc(Br)c2)CC3)n1` registered an RP-LC retention time of 783 s. To `CCCc1cc(N2CCN(C(=O)Cc3ccsc3)CC2)nc2nnc(C)n12` belongs 627 s; to `O=C(NOCC1CC1)c1ccc(F)c(F)c1Nc1ccc(I)cc1Cl`, 1150 s; to `CCn1cccc(-c2nnc(SCC(=O)NCc3ccco3)n2C)c1=O`, 576 s.

For `CCCC(=O)Nc1ccc2c(c1)C(=O)CC(c1ccc3c(c1)OCO3)O2` (centres undefined), the RP-LC retention time was found to be 808 s. Then `CCOc1ccc(-c2cc3c(=O)n(Cc4nc(-c5ccc(Cl)c(F)c5)no4)ncn3n2)cc1`, with 1270 s; and `Cc1nnc2c(S(=O)(=O)N(Cc3ccccc3)c3cc(F)cc(F)c3)cccn12`, with 865 s. To `CCc1ccc(NC(=O)C2CCN(S(=O)(=O)c3c(C)[nH]c(C)c3C(=O)N3CCCC3)CC2)cc1` belongs 729 s; to `CC1CCN(CCCNc2nc3ccncc3n(Cc3ccccc3)c2=O)CC1`, 731 s.

For `Cc1onc(-c2ccccc2Cl)c1C(=O)OCn1nnc2ccccc2c1=O`, the RP-LC retention time was 891 s. Then `COc1cc(NC(=O)Cn2nc3nc(N4CCCC(C)C4)ccn3c2=O)cc(OC)c1` (centres undefined), with 770 s; and `CCOc1ccccc1-c1nc(-c2ccc3nnn(CC)c3c2)no1`, with 1110 s; and `COc1ccc(-c2noc(C3CC(=O)N(c4ccc(OC)c(Cl)c4)C3)n2)c(OC)c1` (centres undefined), with 1010 s. Then `CCc1cc(-c2csc(S(=O)(=O)N(Cc3ccccc3)C(C)C)c2)on1`, with 1170 s; and `COc1ccc(C(=O)Nc2ccc(CC(=O)N3CCOCC3)cc2)c(OC)c1OC`, with 679 s; and `O=C(NCc1ccc(F)cc1F)c1ccc(NC(=O)C2CC2)cc1N1CCOCC1`, with 798 s. For `Cc1ccc(-n2nc(N3CCN(C(=O)C4CC4)CC3)ccc2=O)cc1C`, the RP-LC retention time was determined as 749 s. `CSc1ccc(C2c3[nH]c4ccccc4c3CCN2C(=O)Cc2cccs2)cc1` (centres undefined) gave an RP-LC retention time of 1200 s. `CCN(C(=O)c1ccccc1Br)c1nc(-c2ccccc2)cs1` returned an RP-LC retention time of 1330 s. Then `CCCC(=O)Nc1sc2c(c1C(=O)Nc1ccccc1C)CCC2`, with 1250 s; and `Fc1ccc(C2Cn3nnc(-c4nc(-c5ccc(OC(F)(F)F)cc5)no4)c3CO2)cc1` (centres undefined), with 1250 s.

Compound `O=C(CCC1CCCCC1)Nc1nc(-c2ccc3c(c2)NC(=O)CO3)cs1` displayed an RP-LC retention time of 1020 s. `COc1ccccc1-c1noc(-c2cn(C)c3ccc(F)cc3c2=O)n1`: the RP-LC retention time came out at 744 s.

Compound `CCn1c(=O)sc2cc(S(=O)(=O)N3CCC(C(=O)Nc4cccc(F)c4)CC3)ccc21` registered an RP-LC retention time of 941 s.

Turning to `COCCC(=O)N1CC(F)(F)C[C@H]1c1nc(C2CC2)no1`, the RP-LC retention time was 713 s. Then `O=C(NCc1ccccc1F)C1CCCN(c2nc3ccsc3c(=O)n2Cc2ccc(F)cc2)C1` (centres undefined), with 958 s. `CC(C)N1C(=O)c2cccnc2Sc2cc(NC(=O)Cc3ccc(F)cc3)ccc21` gave an RP-LC retention time of 867 s. Then `O=C1CCC(CCNS(=O)(=O)c2ccc3c(c2)CCCC3)CCN1CC1CC1` (centres undefined), with 938 s; and `Cn1cnc(S(=O)(=O)N2CCOc3ccc(CN4CCc5ccccc5C4)cc3C2)c1`, with 518 s. Regarding `Cc1cc(F)ccc1NS(=O)(=O)c1c[nH]c2ncccc12`, the RP-LC retention time is 735 s. The compound `Cn1ncc2c3ccccc3n(CCCC(=O)NCCc3c[nH]c4ccccc34)c2c1=O` showed an RP-LC retention time of 815 s.

Regarding `Cc1ccc(-c2csc(NC(=O)COc3c(C)ccc(C)c3C)n2)cc1`, the RP-LC retention time worked out at 1320 s. Then `O=C(Nc1ccc(F)c(F)c1)C1CCCN(c2nc3ccsc3c(=O)n2Cc2ccc(F)cc2)C1` (centres undefined), with 1050 s. Then `Cc1nc2ccccn2c(=O)c1CCN1CCC(C(=O)c2ccc(F)cc2)CC1`, with 643 s; and `CC1=C(c2ccc(C)c(C)c2)S(=O)(=O)N=C1N1CCC(C(=O)NCCN2CCOCC2)CC1`, with 648 s; and `N#CC1C=Cc2c(ccc3ccccc23)N1C(=O)c1ccccc1` (centres undefined), with 1090 s. Compound `CC1CCN(C(=O)Cc2nnc(-c3ccccc3)o2)CC1` gave an RP-LC retention time of 770 s. To `CCC1=NS(=O)(=O)c2cccnc2N1c1ccc(Br)cc1` belongs 903 s; to `C=CCSc1nc(N)c2c(C)c(C(=O)O)sc2n1`, 708 s. To `Cc1ccc(-c2noc(CC(=O)NC(C)c3ccc(C)cc3C)n2)cc1` (centres undefined) belongs 1080 s; to `CCc1ccc(NC(=O)Cn2c(C)nc3cc4c(cc32)OCCO4)cc1`, 668 s. To `CC(C)c1ccc(S(=O)(=O)N2CCC(C)(C(=O)NCc3ccc(F)cc3)CC2)cc1` belongs 1050 s.

The compound `O=C(C1=CN(c2cc(F)cc(F)c2)c2cc(Cl)ccc2S1(=O)=O)N1CCCC1` came in with an RP-LC retention time of 861 s.

The compound `Cc1cc(C)c(CNC(=O)C2CCN(c3cncnc3N3CCN(C)CC3)CC2)c(C)c1` displayed an RP-LC retention time of 598 s. Compound `CC(C)NC(=O)c1nc(-c2ccnc(N3CCCCC3)c2)no1` came in with an RP-LC retention time of 671 s. In the case of `COc1cccc(S(=O)(=O)N2CCC([C@H]3[C@@H](OC)C(=O)N3C(C)C)CC2)c1`, the RP-LC retention time amounted to 868 s. With `CSc1nnc(-c2nn(C)c3c2CN(C(=O)c2cccc(N(C)C)c2)CC3)n1C`, the RP-LC retention time was determined as 669 s.

Consider `CCc1cc(=O)n(CC(=O)NC2CCCC2)c(N)n1`, for which the RP-LC retention time was 574 s. Then `CCn1nc(C(=O)Nc2cccc3c2C(=O)N(C)C3=O)cc1C`, with 856 s. Then `COC(=O)c1ccc2c(=O)n(-c3ccc(F)cc3)c(N3CCN(c4ccccn4)CC3)nc2c1`, with 660 s. Take `NC(=O)C1CCN(C(=O)C2CCN(S(=O)(=O)Cc3ccc(Cl)cc3)CC2)CC1`: the RP-LC retention time came out at 678 s. To `CCN1C(=O)c2cccnc2Sc2cc(CNC(=O)Cc3cccc(F)c3)ccc21` belongs 761 s; to `COCCNC(=O)N1CC(c2nc(C3CC3)no2)C1`, 578 s; to `CC(C)CC(=O)N1CCc2c(c(C(=O)N3CCCC(C(=O)Nc4ccccc4)C3)nn2C)C1` (centres undefined), 747 s. On to `O=C(Cn1cnc2c(-c3ccc(F)cc3)csc2c1=O)N1CCCc2ccccc21`, for which the RP-LC retention time is 1020 s. Then `CCn1c(=O)c(C(=O)NCCN(C)C2CCCCC2)nc2cccnc21`, with 722 s; and `COCCCNC(=O)C1c2ccccc2CC(=O)N1Cc1ccccc1` (centres undefined), with 789 s. To `Cc1nc(-c2ccccc2)nc2c1CCC(=O)N2C` belongs 868 s; to `CC1=CC(=O)CC(C)(C)C1(O)/C=C/C(C)=C/C(=O)O` (centres undefined), 693 s; to `O=C(O)c1cc2nc(-c3ccc(Cl)cc3)cc(C(F)(F)F)n2n1`, 927 s. Then `O=C(N[C@H]1C[C@@H]2C[C@H]1CN2C(=O)NCCc1ccccc1)c1cccs1`, with 716 s; and `COc1ccc(S(=O)(=O)N2CCCC(C(=O)NCc3cccnc3)C2)cc1OC` (centres undefined), with 591 s. Turning to `COc1ccc(CNC(=O)CN2C(=O)CSc3cccn3-c3ccccc32)c(OC)c1`, the RP-LC retention time amounted to 868 s. To `Cc1ccc2c(Nc3ccc4c(c3)OCO4)c(C(=O)N3CCOCC3)cnc2n1` belongs 765 s.

Take `O=C(Cn1cccc(-c2nc(-c3ccc(Br)cc3)no2)c1=O)NCCc1ccccc1`: the RP-LC retention time amounted to 1060 s. Then `O=C(NCc1[nH]nc2ccccc12)c1cccc2[nH]ccc12`, with 657 s; and `O=C1CCCc2nc(N3CCN(CCO)CC3)nc(Nc3ccccc3)c21`, with 644 s; and `Cc1ccc(-c2csc(NC(=O)Cc3csc(-c4ccccc4)n3)n2)cc1C`, with 1230 s. Then `CNC(=O)C1CCCN(c2nc3ncn(CC(=O)Nc4ccc(C(F)(F)F)cc4)c(=O)c3s2)C1` (centres undefined), with 711 s. To `Cc1cc(Cl)ccc1OCc1nc(-c2cccc(-c3ccnn3C)c2)no1` belongs 1200 s.
